The source made the active and inactive calls. The rule behind the calls is not given here.
System: CCRIS mutagenicity, Ames/micronucleus/aberration tests
Test: CCRIS mutagenicity studies
[1] = Test System: AMES SALMONELLA TYPHIMURIUM, Strain/Indicator: TA98, Metabolic Activation: NONE, Method: PREINCUBATION
[2] = Test System: AMES SALMONELLA TYPHIMURIUM, Strain/Indicator: TA100, Metabolic Activation: NONE, Method: PREINCUBATION
[3] = Test System: AMES SALMONELLA TYPHIMURIUM, Strain/Indicator: TA1535, Metabolic Activation: NONE, Method: PREINCUBATION
[4] = Test System: UDS RAT HEPATOCYTES, Strain/Indicator: BROMODEOXYURIDINE INCORP, Metabolic Activation: NONE, Method: FLOW CYTOMETRIC ANALYSIS

Measured: mutagenic call

COC(=O)[C@H]1[C@H]2C[C@@H]3c4[nH]c5cc(OC)ccc5c4CCN3C[C@H]2C[C@@H](OC(=O)c2cc(OC)c(OC)c(OC)c2)[C@@H]1OC
inactive: End Point: IN VITRO CHROMOSOMAL ABERRATIONS, Test System: CHO CELLS, Metabolic Activation: NONE inactive; negative | Test System: AMES SALMONELLA TYPHIMURIUM, Strain/Indicator: TA97, Metabolic Activation: HAMSTER, LIVER, S-9, AROCLOR 1254 (10 OR 30%), Method: PREINCUBATION inactive; negative | Test System: AMES SALMONELLA TYPHIMURIUM, Strain/Indicator: TA97, Metabolic Activation: NONE, Method: PREINCUBATION inactive; negative | Test System: AMES SALMONELLA TYPHIMURIUM, Strain/Indicator: TA97, Metabolic Activation: RAT, LIVER, S-9, AROCLOR 1254 (10 OR 30%), Method: PREINCUBATION inactive; negative | Test System: AMES SALMONELLA TYPHIMURIUM, Strain/Indicator: TA98, Metabolic Activation: HAMSTER, LIVER, S-9, AROCLOR 1254 (10 OR 30%), Method: PREINCUBATION inactive; negative | [1] inactive; negative | Test System: AMES SALMONELLA TYPHIMURIUM, Strain/Indicator: TA98, Metabolic Activation: NONE, Method: STANDARD PLATE inactive; negative | Test System: AMES SALMONELLA TYPHIMURIUM, Strain/Indicator: TA98, Metabolic Activation: RAT, LIVER, S-9, AROCLOR 1254 (10 OR 30%), Method: PREINCUBATION inactive; negative | Test System: AMES SALMONELLA TYPHIMURIUM, Strain/Indicator: TA98, Metabolic Activation: RAT, LIVER, S-9, AROCLOR 1254, Method: STANDARD PLATE inactive; negative | Test System: AMES SALMONELLA TYPHIMURIUM, Strain/Indicator: TA100, Metabolic Activation: HAMSTER, LIVER, S-9, AROCLOR 1254 (10 OR 30%), Method: PREINCUBATION inactive; negative | [2] inactive; negative | Test System: AMES SALMONELLA TYPHIMURIUM, Strain/Indicator: TA100, Metabolic Activation: NONE, Method: STANDARD PLATE inactive; negative | Test System: AMES SALMONELLA TYPHIMURIUM, Strain/Indicator: TA100, Metabolic Activation: RAT, LIVER, S-9, AROCLOR 1254 (10%), Method: PREINCUBATION inactive; negative | Test System: AMES SALMONELLA TYPHIMURIUM, Strain/Indicator: TA100, Metabolic Activation: RAT, LIVER, S-9, AROCLOR 1254 (30%), Method: PREINCUBATION inactive; negative | Test System: AMES SALMONELLA TYPHIMURIUM, Strain/Indicator: TA100, Metabolic Activation: RAT, LIVER, S-9, AROCLOR 1254, Method: STANDARD PLATE inactive; negative | Test System: AMES SALMONELLA TYPHIMURIUM, Strain/Indicator: TA1535, Metabolic Activation: HAMSTER, LIVER, S-9, AROCLOR 1254 (10 OR 30%), Method: PREINCUBATION inactive; negative | [3] inactive; negative | Test System: AMES SALMONELLA TYPHIMURIUM, Strain/Indicator: TA1535, Metabolic Activation: NONE, Method: STANDARD PLATE inactive; negative | Test System: AMES SALMONELLA TYPHIMURIUM, Strain/Indicator: TA1535, Metabolic Activation: RAT, LIVER, S-9, AROCLOR 1254 (10 OR 30%), Method: PREINCUBATION inactive; negative | Test System: AMES SALMONELLA TYPHIMURIUM, Strain/Indicator: TA1535, Metabolic Activation: RAT, LIVER, S-9, AROCLOR 1254, Method: STANDARD PLATE inactive; negative | Test System: AMES SALMONELLA TYPHIMURIUM, Strain/Indicator: TA1537, Metabolic Activation: NONE, Method: STANDARD PLATE inactive; negative | Test System: AMES SALMONELLA TYPHIMURIUM, Strain/Indicator: TA1537, Metabolic Activation: RAT, LIVER, S-9, AROCLOR 1254, Method: STANDARD PLATE inactive; negative | Test System: E. COLI, Strain/Indicator: WP2 UVRA, Metabolic Activation: HAMSTER, LIVER, S-9, AROCLOR 1254, Method: STANDARD PLATE inactive; negative | Test System: E. COLI, Strain/Indicator: WP2 UVRA, Metabolic Activation: HAMSTER, LIVER, S-9, Method: STANDARD PLATE inactive; negative | Test System: E. COLI, Strain/Indicator: WP2 UVRA, Metabolic Activation: MOUSE, LIVER, S-9, AROCLOR 1254, Method: STANDARD PLATE inactive; negative | Test System: E. COLI, Strain/Indicator: WP2 UVRA, Metabolic Activation: MOUSE, LIVER, S-9, Method: STANDARD PLATE inactive; negative | Test System: E. COLI, Strain/Indicator: WP2 UVRA, Metabolic Activation: NONE, Method: STANDARD PLATE inactive; negative | Test System: E. COLI, Strain/Indicator: WP2 UVRA, Metabolic Activation: RAT, LIVER, S-9, AROCLOR 1254, Method: STANDARD PLATE inactive; negative | Test System: E. COLI, Strain/Indicator: WP2 UVRA, Metabolic Activation: RAT, LIVER, S-9, Method: STANDARD PLATE inactive; negative | [4] inactive; negative

Nc1nc(N)nc(N)n1
inactive: End Point: IN VITRO CHROMOSOMAL ABERRATIONS, Test System: CHINESE HAMSTER OVARY CELLS, Metabolic Activation: NONE inactive; negative | End Point: IN VITRO CHROMOSOMAL ABERRATIONS, Test System: CHINESE HAMSTER OVARY CELLS, Metabolic Activation: RAT, LIVER, S-9, AROCLOR 1254 inactive; negative | Test System: AMES SALMONELLA TYPHIMURIUM, Strain/Indicator: TA98, Metabolic Activation: HAMSTER, LIVER, S-9, AROCLOR 1254, Method: PREINCUBATION inactive; negative | [1] inactive; negative | Test System: AMES SALMONELLA TYPHIMURIUM, Strain/Indicator: TA98, Metabolic Activation: RAT, LIVER, S-9, AROCLOR 1254, Method: PREINCUBATION inactive; negative | Test System: AMES SALMONELLA TYPHIMURIUM, Strain/Indicator: TA100, Metabolic Activation: HAMSTER, LIVER, S-9, AROCLOR 1254, Method: PREINCUBATION inactive; negative | [2] inactive; negative | Test System: AMES SALMONELLA TYPHIMURIUM, Strain/Indicator: TA100, Metabolic Activation: RAT, LIVER, S-9, AROCLOR 1254, Method: PREINCUBATION inactive; negative | Test System: AMES SALMONELLA TYPHIMURIUM, Strain/Indicator: TA1535, Metabolic Activation: HAMSTER, LIVER, S-9, AROCLOR 1254, Method: PREINCUBATION inactive; negative | [3] inactive; negative | Test System: AMES SALMONELLA TYPHIMURIUM, Strain/Indicator: TA1535, Metabolic Activation: RAT, LIVER, S-9, AROCLOR 1254, Method: PREINCUBATION inactive; negative | Test System: AMES SALMONELLA TYPHIMURIUM, Strain/Indicator: TA1537, Metabolic Activation: HAMSTER, LIVER, S-9, AROCLOR 1254, Method: PREINCUBATION inactive; negative | Test System: AMES SALMONELLA TYPHIMURIUM, Strain/Indicator: TA1537, Metabolic Activation: NONE, Method: PREINCUBATION inactive; negative | Test System: AMES SALMONELLA TYPHIMURIUM, Strain/Indicator: TA1537, Metabolic Activation: RAT, LIVER, S-9, AROCLOR 1254, Method: PREINCUBATION inactive; negative | [4] inactive; negative | Test System: UDS RAT HEPATOCYTES, Strain/Indicator: THY INCORP, Metabolic Activation: NONE, Method: AUTORADIOGRAPHY inactive; negative
